Results: patent publication US20070264276A1, “Vaccine for the prevention and treatment of Alzheimer's and amyloid related diseases” (priority 1999, published 2007)
Square brackets hold non-standard residues; d marks the D form. Ends that are not written are not given here.

What was measured:
[1] = Immunization of rabbits with KLVFFA peptide, antibody titers; assay type: in vivo; details: rabbits immunized, KLH-conjugated peptide, FIG. 7
Method: Rabbits were immunized with all-D or all-L KLVFFA.
Standard assays for fibrillogenesis were used to evaluate activity, such as those based on Thioflavine T, circular dichroism and solubility.
Rabbits were immunized with D- or L-Aβ (16-21) peptide. Antibodies raised were tested for their antifibrillogenic activities by ThT assay and by electron microscopy (EM).

[2] = test system: transgenic mouse model of brain amyloidosis; details: vaccinated transgenic mice; cited from earlier work

| Substance | production of antibodies (antibody titers) [1] | production of antibodies (antibody titers) ([1]; listed as Aβ 16-21 (all-D)) | formation of β-amyloid plaque, astrogliosis and neuritic dystrophy [2] |
| --- | --- | --- | --- |
| Aβ (16-21, all-D) ([dK][dL][dV][dF][dF][dA]) [all-D KLVFFA, KLVFFA] | causes production of antibodies | antibodies can be raised | – |
| human aggregated all-L peptide: human aggregated all-L Aβ peptide used as immunogen in the vaccine of Schenk et al. (1999) | – | – | prevented the formation of β-amyloid plaque, astrogliosis and neuritic dystrophy |
